Experimental data reported in patent publication US20220072083A1, “COMPOSITION FOR IMPROVING OR PREVENTING NONALCOHOLIC FATTY LIVER” (KOHJIN LIFE SCIENCES CO., LTD., priority 2015, published 2022).

How the values were obtained:
[1] = system: Mice (C57/B6J, 8 weeks old male) fed with high-fat food
From the text: Mice (C57/B6J, 8 weeks old male) were divided into 4 groups (5 animals each), and the first group (DB) was freely fed with ordinary food (CertifiedDiet “MF” manufactured by Oriental Yeast Co., ltd.). The second group (HFD) was freely fed with high-fat food (High Fat Diet 32, manufactured by CLEA Japan, Inc.), […].
When the mouse was 20 weeks old, the body weight, the liver weight, the serum aspartate aminotransferase (AST), the alanine aminotransferase (ALT), the serum triglyceride (TG), the free fatty acid value (FFA) and the total cholesterol value (T-cho) were measured.

[2] = system: subjects who had NAFLD in 31 IU/L or more of ALT
[3] = HFD6 (6 mg/kg/day) and HFD60 (60 mg/kg/day) groups in comparison to the HFD group, 20 weeks old

N[C@@H](CCC(=O)N[C@@H](CS)C(=O)NCC(=O)O)C(=O)O [glutathione]
serum AST, ALT, TG, FFA, T-cho: comparison of HFD6 group and HFD60 group ([1]; 6 versus 60 mg/kg/day glutathione): decrease dependently on the concentration
serum ALT [1, 3]: significant decrease
serum AST [1, 3]: significant decrease
serum FFA (free fatty acid value) [1, 3]: significant decrease
serum T-cho (total cholesterol value) [1, 3]: significant decrease
serum TG (triglyceride value) [1, 3]: significant decrease
deposition of fat on the liver by high-fat food ([1]; concluded from liver weight and liver/body weight ratio): suppressed
liver weight ([1]; high-fat food mice, glutathione 6 and 60 mg/kg/day in water, 20 weeks old): decreased dependently on the concentration
body weight ([1]; high-fat food mice, glutathione 6 or 60 mg/kg/day in water): decrease of the body weight was recognized
improvement of ALT after the administration in comparison to ALT before the administration (0 wk) ([2]; Case IDs 1 to 9 (group affected), at least one week after initiation of administration): ≥ 20%
FibroScan (after treatment) CAP ([2]; after treatment, oral glutathione 300 mg per day, one subject (Case ID) per table row): 280 dBe
